Target: T1, LXRβ (Homo sapiens, UniProt P55055)
T1 construct: Co-transfection expression plasmids, comprising full-length LXRα (pCMX-h LXRα[…] or LXRβ (pCMX-hLXRβ)); expressed in transfected cells; host or cells: CV-1 African Green Monkey Kidney Cells
T1 sequence (P55055 1-460): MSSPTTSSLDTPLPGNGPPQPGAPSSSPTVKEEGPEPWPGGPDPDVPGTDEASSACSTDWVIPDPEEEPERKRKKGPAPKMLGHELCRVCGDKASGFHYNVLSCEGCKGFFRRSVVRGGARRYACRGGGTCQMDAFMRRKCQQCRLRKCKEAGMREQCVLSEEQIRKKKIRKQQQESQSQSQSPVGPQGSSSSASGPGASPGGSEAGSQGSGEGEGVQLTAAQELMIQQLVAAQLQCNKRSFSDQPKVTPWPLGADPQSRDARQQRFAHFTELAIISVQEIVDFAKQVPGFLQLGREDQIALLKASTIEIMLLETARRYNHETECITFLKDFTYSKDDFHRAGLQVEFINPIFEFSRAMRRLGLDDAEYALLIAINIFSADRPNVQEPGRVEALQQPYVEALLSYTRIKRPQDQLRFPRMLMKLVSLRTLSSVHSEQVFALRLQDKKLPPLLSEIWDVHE
T1 sequence (P19793 1-462 partner): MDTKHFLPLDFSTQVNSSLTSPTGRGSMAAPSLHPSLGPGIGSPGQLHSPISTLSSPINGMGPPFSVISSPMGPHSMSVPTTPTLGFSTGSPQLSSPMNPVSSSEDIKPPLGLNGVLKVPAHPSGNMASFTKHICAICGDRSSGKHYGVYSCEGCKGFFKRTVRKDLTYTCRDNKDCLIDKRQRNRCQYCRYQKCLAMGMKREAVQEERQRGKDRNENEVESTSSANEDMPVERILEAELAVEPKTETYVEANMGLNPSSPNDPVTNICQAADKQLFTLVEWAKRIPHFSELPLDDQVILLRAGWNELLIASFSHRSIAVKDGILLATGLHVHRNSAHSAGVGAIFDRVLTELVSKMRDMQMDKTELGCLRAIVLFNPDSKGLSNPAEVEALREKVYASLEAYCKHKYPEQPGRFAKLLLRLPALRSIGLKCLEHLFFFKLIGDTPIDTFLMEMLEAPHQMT
Assay: Co-transfection assay (LXRE luciferase reporter), LXRβ
Assay type: cell-based
Conditions: for EC50: CV-1 cells transfected with pCMX-hLXRβ and LXREx1-Tk-Luciferase, 20 hours incubation; for Emax: LXRβ co-transfection, relative to high control 1-(2,4-difluorobenzyl)-2-oxo-6-(4-phenoxyphenyl)-4-(trifluoromethyl)-1,2-dihydropyridine-3-carbonitrile, read-out: % Efficacy
Method in brief: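 CV-1 / pCMX-hLXRβ + LXREx1-Tk-Luc + β-gal; cpd 20 h, 37 °C, ≤0.5% DMSO; Steady-Glo luminescence. 11-pt ½-log curves, duplicate wells, sigmoidal fit → EC50; % efficacy vs high-control agonist, DMSO low control; mean of ≥2 expts.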

SMILES	EC50	Emax
Cc1nc(C(F)(F)F)cn1-c1ccc(-c2cccc(S(C)(=O)=O)c2)cc1-c1nc(C(F)(F)F)cn1-c1ccc(Cl)nc1 [Example 642, 2-chloro-5-(2-(4-(2-methyl-4-(trifluoromethyl)-1H-imidazol-1-yl)-3′-(methylsulfonyl)biphenyl-3-yl)-4-(trifluoromethyl)-1H-imidazol-1-yl)pyridine]	1.15 µM	32%
Cc1nc(C(F)(F)F)cn1-c1ccc(-c2cccc(S(C)(=O)=O)c2)cc1-c1nc(C(F)(F)F)cn1-c1ccc(Cl)cc1 [Example 644, 1-(4-chlorophenyl)-2-(4-(2-methyl-4-(trifluoromethyl)-1H-imidazol-1-yl)-3′-(methylsulfonyl)biphenyl-3-yl)-4-(trifluoromethyl)-1H-imidazole]	0.408 µM	37%
Cc1nc(C(F)(F)F)cn1-c1ccc(-c2cccc(S(C)(=O)=O)c2)cc1-c1nc(C2CC2)cn1-c1ccc(Cl)cc1 [Example 646, 1-(4-chlorophenyl)-4-cyclopropyl-2-(4-(2-methyl-4-(trifluoromethyl)-1H-imidazol-1-yl)-3′-(methylsulfonyl)-[1,1′-biphenyl]-3-yl)-1H-imidazole]	0.572 µM	44%

Stronger by EC50, values ahead:

EC50	Emax	SMILES
0.341 µM	84%	Cc1nc(C(F)(F)F)cn1-c1ccc(-c2cccc(S(C)(=O)=O)c2)cc1-c1nc(C2CC2)cn1-c1ccc2c(c1)OC(F)(F)O2 [Example 643, 4-cyclopropyl-1-(2,2-difluorobenzo[d][1,3]dioxol-5-yl)-2-(4-(2-methyl-4-(trifluoromethyl)-1H-imidazol-1-yl)-3′-(methylsulfonyl)biphenyl-3-yl)-1H-imidazole]
0.144 µM	32%	Cc1nc(C(F)(F)F)cn1-c1ccc(-c2cc(F)c(CO)c(S(C)(=O)=O)c2)cc1-c1nc(C(F)(F)F)cn1-c1ccc(Cl)cc1 [Example 645, (3′-(1-(4-chlorophenyl)-4-(trifluotomethyl)-1H-imidazol-2-yl)-3-fluoro-4′-(2-methyl-4-(trifluoromethyl)-1H-imidazol-1-yl)-5-(methylsulfonyl)biphenyl-4-yl)methanol]
0.35 µM	49%	Cc1nc(C(F)(F)F)cn1-c1ccc(-c2cc(F)c(CO)c(S(C)(=O)=O)c2)cc1-c1nc(C2CC2)cn1-c1ccc(Cl)cc1 [Example 647, (3′-(1-(4-chlorophenyl)-4-cyclopropyl-1H-imidazol-2-yl)-3-fluoro-4′-(2-methyl-4-(trifluoromethyl)-1H-imidazol-1-yl)-5-(methylsulfonyl)-[1,1′-biphenyl]-4-yl)methanol]

— patent publication US9834542B2, “LXR modulators” (BRISTOL-MYERS SQUIBB COMPANY, priority 2013, dated 2017)
